The source made the active and inactive calls. How the calls were made is not given here.
Test system: M. tuberculosis wild type plus biotin, growth inhibition
Assay: growth inhibition of wild-type M. tuberculosis, plus biotin, BioA project, dry powder (AID 743349)

| Compound | IC90 |
| --- | --- |
| CNC(=O)c1ccc(N2CCN(C(=O)c3ccc4c(c3)OCO4)CC2)cc1 | > 50 µM (inactive) |
| CC(=O)c1ccc(N2CCN(C(=O)c3ccc4c(c3)OCO4)[C@H](C)C2)cc1 | > 50 µM (inactive) |
| CN1c2ccc(-c3cccc(F)c3)cc2[C@@H]2[C@@H](CCN2C(=O)c2ccc3c(c2)OCO3)[C@@H]1CO | > 50 µM (inactive) |
| CCCCCCCC(=O)N1CC[C@@H]2[C@@H](CO)N(C)c3ccc(-c4cccc(F)c4)cc3[C@@H]21 | > 50 µM (inactive) |
| COc1ccccc1C(=O)N1CCN(c2ccc(C(C)=O)cc2)CC1 | > 50 µM (inactive) |
| CN1c2ccc(-c3cccc(F)c3)cc2[C@H]2[C@H](CCN2C(=O)CCCCCCN)[C@H]1CO | > 50 µM (inactive) |
| COc1ccc(NC(=O)N2CC[C@@H]3[C@@H](CO)N(C)c4ccc(-c5ccc(F)cc5)cc4[C@@H]32)cc1 | > 50 µM (inactive) |
| CNS(=O)(=O)c1ccc(N2CCN(C(=O)c3ccc4c(c3)OCO4)CC2)cc1 | > 50 µM (inactive) |
| CN1c2ccc(-c3ccc(F)cc3)cc2[C@H]2[C@H](CCN2C(=O)Nc2ccc(F)cc2)[C@H]1CO | > 50 µM (inactive) |
| CN1c2ccc(-c3cccc(F)c3)cc2[C@H]2[C@H](CCN2C(=O)CCCCCCC(=O)O)[C@H]1CO | > 50 µM (inactive) |
| CN(C)C(=O)c1ccc(N2CCN(C(=O)c3ccc4c(c3)OCO4)CC2)cc1 | > 50 µM (inactive) |
| CCC(=O)N1CC[C@@H]2[C@@H](CO)N(C)c3ccc(-c4ccc(F)cc4)cc3[C@@H]21 | > 50 µM (inactive) |
| COC(=O)CCCCCCC(=O)N1CC[C@@H]2[C@@H](CO)N(C)c3ccc(-c4cccc(F)c4)cc3[C@@H]21 | > 50 µM (inactive) |
| CN1c2ccc(-c3cccc(F)c3)cc2[C@H]2[C@H](CCN2C(=O)Cc2cccnc2)[C@H]1CO | > 50 µM (inactive) |
| CC(=O)c1ccc(N2CC3(CN(C(=O)c4ccc5c(c4)OCO5)C3)C2)cc1 | > 50 µM (inactive) |
| CC(=O)c1ccc(N2CCN(C(=O)c3ccccc3Cl)CC2)cc1 | > 50 µM (inactive) |
| CN1c2ccc(-c3cccc(F)c3)cc2[C@H]2[C@H](CCN2C(=O)c2ccc3c(c2)OCO3)[C@@H]1CO | > 50 µM (inactive) |

| Compound | IC90 |
| --- | --- |
| COc1ccc(NC(=O)N2CC[C@@H]3[C@@H](CO)N(C)c4ccc(-c5cccc(F)c5)cc4[C@@H]32)cc1 | > 50 µM (inactive) |
| CN1c2ccc(-c3ccc(F)cc3)cc2[C@H]2[C@H](CCN2C(=O)Cc2cccnc2)[C@H]1CO | > 50 µM (inactive) |
| COc1ccccc1NC(=O)N1CC[C@@H]2[C@@H](CO)N(C)c3ccc(-c4cccc(F)c4)cc3[C@@H]21 | > 50 µM (inactive) |
| CC(=O)c1ccc(N2CCN(C(=O)c3ccc4c(c3)OCO4)CC2)cc1 | > 50 µM (inactive) |
| CCCNC(=O)N1CC[C@@H]2[C@@H](CO)N(C)c3ccc(-c4ccc(F)cc4)cc3[C@@H]21 | > 50 µM (inactive) |
| CC(C)NC(=O)N1CC[C@@H]2[C@@H](CO)N(C)c3ccc(-c4ccc(F)cc4)cc3[C@@H]21 | > 50 µM (inactive) |
| COc1ccccc1NC(=O)N1CC[C@@H]2[C@@H](CO)N(C)c3ccc(-c4ccc(F)cc4)cc3[C@@H]21 | > 50 µM (inactive) |
| CN1c2ccc(-c3cccc(F)c3)cc2[C@@H]2[C@@H](CCN2C(=O)c2ccc3c(c2)OCO3)[C@H]1CO | > 50 µM (inactive) |
| COCC(=O)N1CC[C@@H]2[C@@H](CO)N(C)c3ccc(-c4cccc(F)c4)cc3[C@@H]21 | > 50 µM (inactive) |
| CC(C)NC(=O)N1CC[C@@H]2[C@@H](CO)N(C)c3ccc(-c4cccc(F)c4)cc3[C@@H]21 | > 50 µM (inactive) |
| CN1c2ccc(-c3ccc(F)cc3)cc2[C@H]2[C@H](CCN2C(=O)Cc2ccccn2)[C@H]1CO | > 50 µM (inactive) |
| CC(=O)c1ccc(NCCNC(=O)c2ccc3c(c2)OCO3)cc1 | > 50 µM (inactive) |
| CC(=O)c1ccc(N2CCN(C(=O)c3ccccc3F)CC2)cc1 | > 50 µM (inactive) |
| CN1c2ccc(-c3cccc(F)c3)cc2[C@H]2[C@H](CCN2C(=O)Nc2ccccc2F)[C@H]1CO | > 50 µM (inactive) |
| COc1cccc(NC(=O)N2CC[C@@H]3[C@@H](CO)N(C)c4ccc(-c5cccc(F)c5)cc4[C@@H]32)c1 | > 50 µM (inactive) |
| CN1c2ccc(-c3cccc(F)c3)cc2[C@H]2[C@H](CCN2C(=O)Cc2ccccc2)[C@H]1CO | > 50 µM (inactive) |
| CN1c2ccc(-c3ccc(F)cc3)cc2[C@H]2[C@H](CCN2C(=O)Nc2cc(F)ccc2F)[C@H]1CO | > 50 µM (inactive) |
